Laboratory results: paper PMC10569260 (Nature methods, 2023)

Columns and labels:
locomotion = assay: Open field locomotion with infusion / in vivo uncaging in the VTA; parameters: species or system mouse; conditions: naloxone 3 mg/kg intraperitoneal before CNV-Y-DAMGO infusion and light
[1] = test system: inhibitory synaptic transmission onto CA1 pyramidal neurons (native opioid receptors); type: cell-based, mouse; conditions: CTAP 1 μM, with CNV-Y-DAMGO uncaging

| Compound | effect on locomotor response to DAMGO photorelease (locomotion) | effect on optically-evoked suppression of synaptic transmission [1] |
| --- | --- | --- |
| C=CCN1CC[C@]23c4c5ccc(O)c4O[C@H]2C(=O)CC[C@@]3(O)[C@H]1C5 [naloxone] | strongly attenuated |  |
| CTAP |  | completely blocked |
